Consider one compound from article PMC8371461 (Frontiers in Pharmacology, 2021).

Data set [1] concerns the target T1, STK36 (Homo sapiens, UniProt Q9NRP7).
T1 construct: purchased DiscoverX (KINOMEscan)
Briefly: kinome scan. Type of data set: binding. The conditions noted are these: 10 µM.

Data set [2] concerns the target T2, BRAF (Homo sapiens, UniProt P15056).
T2 construct: purchased DiscoverX (KINOMEscan)
Nature of the data set: kinome scan. Type of data set: binding. The conditions noted are these: 10 µM.

For data set [3], the target named is T3, CSF1R (Homo sapiens, UniProt P07333).
T3 construct: purchased DiscoverX (KINOMEscan)
Nature of the data set: kinome scan. Type of data set: binding. As to conditions: 10 µM.

In data set [4] the target is T4, NEK3 (Homo sapiens, UniProt P51956).
T4 construct: purchased DiscoverX (KINOMEscan)
Briefly: kinome scan. Type of data set: binding. As to conditions: 10 µM.

Data set [5] concerns the target T5, ABL1(H396P)-phosphorylated (Homo sapiens, UniProt P00519, H396P).
T5 construct: purchased DiscoverX (KINOMEscan)
Briefly: kinome scan. Type of data set: binding. The conditions noted are these: 10 µM.

Data set [6] has as its target T6, TIE1 (Homo sapiens, UniProt P35590).
T6 construct: purchased DiscoverX (KINOMEscan)
Briefly: kinome scan. Type of data set: binding. The conditions noted are these: 10 µM.

In data set [7] the target is T7, CAMK2G (Homo sapiens, UniProt Q13555).
T7 construct: purchased DiscoverX (KINOMEscan)
Nature of the data set: kinome scan. Type of data set: binding. The conditions noted are these: 10 µM.

Data set [8] has as its target T8, MST3 (Homo sapiens, UniProt Q9Y6E0).
T8 construct: purchased DiscoverX (KINOMEscan)
Nature of the data set: kinome scan. The conditions noted are these: 10 µM. Type of data set: binding.

Data set [9] concerns the target T9, STK33 (Homo sapiens, UniProt Q9BYT3).
T9 construct: purchased DiscoverX (KINOMEscan)
Nature of the data set: kinome scan. Type of data set: binding. As to conditions: 10 µM.

The target of data set [10] is T10, YES (Homo sapiens, UniProt P07947).
T10 construct: purchased DiscoverX (KINOMEscan)
Briefly: kinome scan. The conditions noted are these: 10 µM. Type of data set: binding.

Data set [11] has as its target T11, PRKCD (Homo sapiens, UniProt Q05655).
T11 construct: purchased DiscoverX (KINOMEscan)
Briefly: kinome scan. As to conditions: 10 µM. Type of data set: binding.

Data set [12] addresses T12, ADCK3 (Homo sapiens, UniProt Q8NI60).
T12 construct: purchased DiscoverX (KINOMEscan)
Nature of the data set: kinome scan. As to conditions: 10 µM. Type of data set: binding.

The target of data set [13] is T13, CSNK2A2 (Homo sapiens, UniProt P19784).
T13 construct: purchased DiscoverX (KINOMEscan)
Nature of the data set: kinome scan. Type of data set: binding. As to conditions: 10 µM.

Data set [14] has as its target T14, VRK2 (Homo sapiens, UniProt Q86Y07).
T14 construct: purchased DiscoverX (KINOMEscan)
Briefly: kinome scan. Type of data set: binding. The conditions noted are these: 10 µM.

The target in data set [15] is T15, PIK4CB (Homo sapiens, UniProt Q9UBF8).
T15 construct: purchased DiscoverX (KINOMEscan)
Nature of the data set: kinome scan. Type of data set: binding.

In data set [16] the target is T16, ICK (Homo sapiens, UniProt Q9UPZ9).
T16 construct: purchased DiscoverX (KINOMEscan)
Briefly: kinome scan. Type of data set: binding. The conditions noted are these: 10 µM.

The test system of data set [17] is Pregnane X receptor (PXR) signaling pathway. Also on record: method as in CHEMBL3215112. The conditions noted are these: reported activity, data mining; ref CHEMBL3215112; cited from earlier work.
The subject of data set [18] is AKT. Briefly: AKT phosphorylation at the protein level in PSC. Type of data set: cell-based, mouse. As to conditions: 10 µM, 10 min, 1 and 3 h after exposure.
In data set [19] the target is T17, DCAMKL2 (Homo sapiens, UniProt Q8N568).
T17 construct: purchased DiscoverX (KINOMEscan)
Briefly: kinome scan. Type of data set: binding. As to conditions: 10 µM.

Data set [20] addresses T18, MYLK (Homo sapiens, UniProt Q15746).
T18 construct: purchased DiscoverX (KINOMEscan)
Briefly: kinome scan. Type of data set: binding. The conditions noted are these: 10 µM.

In data set [21] the target is T19, EPHA3 (Homo sapiens, UniProt P29320).
T19 construct: purchased DiscoverX (KINOMEscan)
Briefly: kinome scan. Type of data set: binding. As to conditions: 10 µM.

Data set [22] addresses T20, PKAC-beta (Homo sapiens, UniProt P22694).
T20 construct: purchased DiscoverX (KINOMEscan)
Briefly: kinome scan. Type of data set: binding. As to conditions: 10 µM.

Data set [23] has as its target T21, PRKR (Homo sapiens, UniProt P19525).
T21 construct: purchased DiscoverX (KINOMEscan)
Nature of the data set: kinome scan. As to conditions: 10 µM. Type of data set: binding.

T15 sequence (Q9UBF8 whole entry): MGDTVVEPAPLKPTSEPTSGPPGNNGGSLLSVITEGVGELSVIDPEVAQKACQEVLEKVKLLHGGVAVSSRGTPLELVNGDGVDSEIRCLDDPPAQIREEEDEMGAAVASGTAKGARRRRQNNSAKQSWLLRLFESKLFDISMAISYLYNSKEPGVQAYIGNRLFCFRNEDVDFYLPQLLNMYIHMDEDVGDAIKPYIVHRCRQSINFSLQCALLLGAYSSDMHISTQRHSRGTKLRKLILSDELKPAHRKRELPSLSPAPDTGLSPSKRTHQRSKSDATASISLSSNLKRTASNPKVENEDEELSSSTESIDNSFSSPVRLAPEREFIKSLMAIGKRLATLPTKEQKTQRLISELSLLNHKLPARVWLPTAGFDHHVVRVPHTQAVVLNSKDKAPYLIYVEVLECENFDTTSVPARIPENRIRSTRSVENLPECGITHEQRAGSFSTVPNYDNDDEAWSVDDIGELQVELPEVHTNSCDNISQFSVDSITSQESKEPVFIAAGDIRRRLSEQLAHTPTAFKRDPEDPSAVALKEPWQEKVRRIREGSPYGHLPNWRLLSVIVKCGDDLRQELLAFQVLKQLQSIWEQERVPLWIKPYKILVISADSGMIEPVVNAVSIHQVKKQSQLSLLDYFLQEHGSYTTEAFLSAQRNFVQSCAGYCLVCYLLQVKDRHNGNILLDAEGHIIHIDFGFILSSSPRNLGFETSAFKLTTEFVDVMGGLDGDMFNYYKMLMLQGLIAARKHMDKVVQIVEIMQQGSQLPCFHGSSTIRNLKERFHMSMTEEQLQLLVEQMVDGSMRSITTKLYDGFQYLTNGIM
T16 sequence (Q9UPZ9 whole entry): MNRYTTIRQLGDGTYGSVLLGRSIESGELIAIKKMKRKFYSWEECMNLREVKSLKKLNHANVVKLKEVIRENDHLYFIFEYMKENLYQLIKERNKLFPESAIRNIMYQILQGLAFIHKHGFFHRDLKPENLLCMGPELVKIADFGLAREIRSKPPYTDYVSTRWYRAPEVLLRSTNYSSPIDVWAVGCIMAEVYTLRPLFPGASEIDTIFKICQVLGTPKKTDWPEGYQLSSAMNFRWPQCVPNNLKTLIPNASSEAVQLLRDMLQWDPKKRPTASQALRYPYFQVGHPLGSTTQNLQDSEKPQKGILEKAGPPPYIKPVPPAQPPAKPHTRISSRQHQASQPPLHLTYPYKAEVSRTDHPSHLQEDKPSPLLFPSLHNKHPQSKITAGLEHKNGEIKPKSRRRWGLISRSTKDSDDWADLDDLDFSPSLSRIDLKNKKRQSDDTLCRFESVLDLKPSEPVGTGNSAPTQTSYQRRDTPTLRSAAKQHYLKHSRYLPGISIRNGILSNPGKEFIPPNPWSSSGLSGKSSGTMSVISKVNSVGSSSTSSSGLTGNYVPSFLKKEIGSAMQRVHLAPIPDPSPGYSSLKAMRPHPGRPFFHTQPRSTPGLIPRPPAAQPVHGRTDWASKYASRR
T18 sequence (Q15746 whole entry): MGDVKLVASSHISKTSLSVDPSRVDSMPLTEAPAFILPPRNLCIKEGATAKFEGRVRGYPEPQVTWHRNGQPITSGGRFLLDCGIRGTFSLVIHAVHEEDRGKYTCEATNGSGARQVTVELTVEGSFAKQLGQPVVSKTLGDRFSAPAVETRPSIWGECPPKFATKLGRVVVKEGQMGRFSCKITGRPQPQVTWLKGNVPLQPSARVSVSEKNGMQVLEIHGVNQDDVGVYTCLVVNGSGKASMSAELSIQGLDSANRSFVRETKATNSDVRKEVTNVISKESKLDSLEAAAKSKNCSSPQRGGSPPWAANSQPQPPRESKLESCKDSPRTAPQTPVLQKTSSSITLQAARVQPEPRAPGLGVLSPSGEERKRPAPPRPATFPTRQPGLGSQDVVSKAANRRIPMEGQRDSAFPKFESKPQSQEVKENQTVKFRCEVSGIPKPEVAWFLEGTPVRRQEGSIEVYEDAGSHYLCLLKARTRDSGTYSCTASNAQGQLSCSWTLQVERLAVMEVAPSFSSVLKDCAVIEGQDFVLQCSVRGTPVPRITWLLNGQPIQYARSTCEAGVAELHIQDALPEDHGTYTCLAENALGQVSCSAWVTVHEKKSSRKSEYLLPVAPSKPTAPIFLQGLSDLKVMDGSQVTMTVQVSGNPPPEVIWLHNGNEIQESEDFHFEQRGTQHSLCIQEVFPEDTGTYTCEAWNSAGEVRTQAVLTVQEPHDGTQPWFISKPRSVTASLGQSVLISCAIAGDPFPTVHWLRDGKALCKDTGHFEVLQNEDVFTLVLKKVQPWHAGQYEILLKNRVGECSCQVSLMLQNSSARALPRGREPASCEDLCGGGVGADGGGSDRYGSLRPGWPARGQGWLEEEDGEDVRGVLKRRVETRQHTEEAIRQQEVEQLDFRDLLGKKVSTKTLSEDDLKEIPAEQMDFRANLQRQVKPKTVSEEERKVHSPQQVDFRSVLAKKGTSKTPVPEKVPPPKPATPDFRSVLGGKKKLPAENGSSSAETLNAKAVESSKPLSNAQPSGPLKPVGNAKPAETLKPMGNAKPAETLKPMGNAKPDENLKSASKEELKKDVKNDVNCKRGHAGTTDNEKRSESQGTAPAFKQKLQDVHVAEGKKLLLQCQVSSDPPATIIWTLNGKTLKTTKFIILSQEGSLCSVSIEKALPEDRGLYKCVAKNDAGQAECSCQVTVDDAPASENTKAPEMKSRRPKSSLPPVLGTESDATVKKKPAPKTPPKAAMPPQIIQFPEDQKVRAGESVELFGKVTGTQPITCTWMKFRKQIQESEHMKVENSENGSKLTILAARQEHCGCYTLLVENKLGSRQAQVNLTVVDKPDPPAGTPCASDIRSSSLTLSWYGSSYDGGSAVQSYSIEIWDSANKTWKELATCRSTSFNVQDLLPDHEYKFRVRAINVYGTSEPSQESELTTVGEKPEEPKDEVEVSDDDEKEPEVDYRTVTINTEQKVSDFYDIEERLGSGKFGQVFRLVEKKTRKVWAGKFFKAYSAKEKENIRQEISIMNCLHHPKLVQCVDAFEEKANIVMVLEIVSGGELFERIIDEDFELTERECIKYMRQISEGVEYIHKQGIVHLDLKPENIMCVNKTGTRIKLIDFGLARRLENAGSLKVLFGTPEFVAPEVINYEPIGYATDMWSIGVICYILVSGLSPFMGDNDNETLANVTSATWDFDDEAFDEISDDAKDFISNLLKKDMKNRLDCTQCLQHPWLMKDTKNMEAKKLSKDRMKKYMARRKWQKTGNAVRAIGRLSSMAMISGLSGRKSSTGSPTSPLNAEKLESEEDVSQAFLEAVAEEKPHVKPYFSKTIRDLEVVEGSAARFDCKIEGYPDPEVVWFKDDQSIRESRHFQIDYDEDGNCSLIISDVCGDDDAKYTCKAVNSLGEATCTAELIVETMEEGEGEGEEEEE
T19 sequence (P29320 21-983): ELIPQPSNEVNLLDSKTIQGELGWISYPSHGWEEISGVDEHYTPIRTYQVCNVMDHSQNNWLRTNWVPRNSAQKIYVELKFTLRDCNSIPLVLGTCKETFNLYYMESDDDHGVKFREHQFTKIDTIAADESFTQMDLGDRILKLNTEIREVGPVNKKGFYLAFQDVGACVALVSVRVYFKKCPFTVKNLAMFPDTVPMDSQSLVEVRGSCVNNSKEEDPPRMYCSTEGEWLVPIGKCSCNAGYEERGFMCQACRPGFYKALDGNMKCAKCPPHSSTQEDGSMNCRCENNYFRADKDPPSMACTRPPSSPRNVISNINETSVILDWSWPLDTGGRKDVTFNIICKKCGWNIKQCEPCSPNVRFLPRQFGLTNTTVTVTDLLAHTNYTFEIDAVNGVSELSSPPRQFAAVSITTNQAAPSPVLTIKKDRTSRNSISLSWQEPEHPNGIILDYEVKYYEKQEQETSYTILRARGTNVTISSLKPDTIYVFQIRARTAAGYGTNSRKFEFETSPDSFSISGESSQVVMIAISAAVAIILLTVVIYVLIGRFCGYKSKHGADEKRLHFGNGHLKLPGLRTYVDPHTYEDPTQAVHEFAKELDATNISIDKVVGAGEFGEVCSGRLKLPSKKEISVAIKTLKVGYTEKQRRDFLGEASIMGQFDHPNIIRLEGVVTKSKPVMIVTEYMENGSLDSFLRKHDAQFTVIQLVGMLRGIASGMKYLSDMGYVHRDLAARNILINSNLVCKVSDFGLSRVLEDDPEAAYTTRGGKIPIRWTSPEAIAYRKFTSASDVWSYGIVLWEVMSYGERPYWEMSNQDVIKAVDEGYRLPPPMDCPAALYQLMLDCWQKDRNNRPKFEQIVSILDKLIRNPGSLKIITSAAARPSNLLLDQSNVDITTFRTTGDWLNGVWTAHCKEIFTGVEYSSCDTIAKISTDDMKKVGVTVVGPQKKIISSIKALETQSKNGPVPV
T12 sequence (Q8NI60 163-647): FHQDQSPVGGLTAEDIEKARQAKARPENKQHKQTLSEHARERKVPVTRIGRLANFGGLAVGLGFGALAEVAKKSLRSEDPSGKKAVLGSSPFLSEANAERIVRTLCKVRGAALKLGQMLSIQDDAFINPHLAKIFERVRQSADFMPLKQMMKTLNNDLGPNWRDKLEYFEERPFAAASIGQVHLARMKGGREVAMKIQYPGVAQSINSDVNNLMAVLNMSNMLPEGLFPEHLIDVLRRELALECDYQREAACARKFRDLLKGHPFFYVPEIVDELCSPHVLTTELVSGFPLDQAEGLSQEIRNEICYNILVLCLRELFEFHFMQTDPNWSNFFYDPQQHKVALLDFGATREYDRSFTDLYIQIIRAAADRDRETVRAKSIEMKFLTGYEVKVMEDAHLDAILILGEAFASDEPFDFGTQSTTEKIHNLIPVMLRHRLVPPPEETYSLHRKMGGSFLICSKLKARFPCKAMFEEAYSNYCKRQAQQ

`Nc1ccc(N=Nc2ccccc2)c(N)n1` [phenazopyridine, 2,6-diamino-3-(phenylazo)pyridine]: the kinase inhibition amounted to 99 in [1]; 96 in [2]; 81 in [3]; 100 in data set [4]; 77 in data set [5]; 91 in data set [6]. Further, the kinase inhibition stood at 100 in [7]; 98 in data set [8]; 100 in data set [9]; 100 in [10]; 100 in [11]; 91 in data set [12]. Further, the kinase inhibition in [13] turned out to be 63; in data set [14], 86; in data set [16] it was 90; in [19], 89; in data set [20], 100; in data set [21], 81. The kinase inhibition in data set [22] is 95; in data set [23], 86. In data set [15] (10 µM), the “remaining kinase binding (% of control)” value turned out to be 4.6. The remaining binding at 10 µM in [15] (read-out: % Of control) worked out at 4.6%. Besides, the Concentration in [17] was 7.9 µM. Moreover, the “phosphorylation of AKT” value in data set [18] was “reduced phosphorylation of AKT”.
